Test results published in patent US20120046314A1, “[…] USE IN TREATING OR […]” (MITOS, INC., priority 2005, published 2012).

Key:
[1] = test system: Uncoupling protein 2 (UCP2); assay: Gene expression in adipose tissue of Tempol-fed mice (Affymetrix MOE430A 2.0 array); format: in vivo
Method: (§1) In a further gene expression study, Tempol was administered to experimental mice at a dose of 5 g/kg of diet from 12 months through 15 months. Mice receiving the same diet without the addition of Tempol were used as a negative control. At the age of 15 months, the adipose tissue of the experimental animals was obtained. The expression of a broad spectrum of genes in the adipose tissue was assessed using chip-based microarray technology. Specifically, in this case an Affymetrix MOE430A 2.0 array, containing 12,960 genes, was employed. Such chips are well known in the art and are widely used to assess gene expression.

Brain protein I3 (BRI3) = assay: as above; format: in vivo
Method: as §1

[2] = test system: p53-related apoptosis effector related to PMP-22 (PERP); assay: as above; format: in vivo
Method: as §1

Sirtuin 2 (SIRT2) = assay: as above; format: in vivo
Method: as §1

Cyclooxygenase 1 (COX-1) = assay: as above; format: in vivo
Method: as §1

[3] = test system: Hypoxia-inducible factor, alpha subunit (HIF1A); assay: as above; format: in vivo
Method: as §1

[4] = test system: Superoxide dismutase 2 (SOD2); assay: as above; format: in vivo
Method: as §1

[5] = test system: Glutathione S-transferase M3 (GSTM3); assay: as above; format: in vivo
Method: as §1

Elongation factor-1-δ = assay: Gene expression in cardiac tissue of Tempol-fed mice (chip-based microarray); format: in vivo
Method: (§2) To assess the effects of Tempol on gene expression, Tempol was administered to experimental mice at a dose of 5 mg/g of food from 14 months to 31 months after birth. Mice receiving the same food without the addition of Tempol were used as a negative control. At the age of 31 months, the experimental animals were sacrificed and the hearts were surgically removed. The expression of a broad spectrum of genes in the cardiac tissue was assessed using chip-based microarray technology. Such chips are well known in the art and are widely used to assess gene expression.

Meltrin-alpha (ADAM12) = assay: as above; format: in vivo
Method: as §2

[6] = test system: Peroxisome Proliferator-Activated Receptor-δ; assay: as above; format: in vivo
Method: as §2

Cathepsin B = assay: as above; format: in vivo
Method: as §2

[7] = test system: Mitogen activated protein kinase kinase 5; assay: as above; format: in vivo
Method: as §2

[8] = test system: cancer-related proteins in the cancerous tissue; assay: Example 1: protein levels in cancerous tissue of patient diagnosed with cancer after Tempol; format: in vivo, human; details: 70-kilogram patient diagnosed with cancer; 1500 mg per day for 180 days
Method: A 70-kilogram patient diagnosed with cancer is administered a dose of 1500 mg of Tempol per day for 180 days. This may be administered in a single dose, or may be administered as a number of smaller doses over a 24-hour period: for example, three 500-mg doses at eight-hour intervals. Following treatment, the protein levels of elongation factor-1 delta, ADAM12, cathepsin B, peroxisome proliferator-activated receptor-δ, hypoxia-inducible factor alpha subunit, superoxide dismutase 2, uncoupling protein 2, and cyclooxygenase 1 in the cancerous tissue are reduced, and the levels of mitogen-activated protein kinase kinase 5, glutathione S-transferase M3, PERP, sirtuin 2, and brain protein I3 are increased.

[9] = test system: cancer-related proteins in the cancerous tissue; assay: Example 2: protein levels in patient with familial risk factors for cancer after Tempol; format: in vivo, human; details: 70-kilogram patient with familial risk factors, no symptoms; 1500 mg per day for 180 days
Text: This may be administered in a single dose, or may be administered as a number of smaller doses over a 24-hour period: for example, three 500-mg doses at eight-hour intervals. Following treatment, the protein levels of elongation factor-1 delta, ADAM12, cathepsin B, peroxisome proliferator-activated receptor-δ, hypoxia-inducible factor alpha subunit, superoxide dismutase 2, uncoupling protein 2, and cyclooxygenase 1 in the cancerous tissue are reduced, and the levels of mitogen-activated protein kinase kinase 5, glutathione S-transferase M3, PERP, sirtuin 2, and brain protein I3 are increased.

[10] = 5 g/kg of diet from 12 through 15 months
[11] = reduction in Tempol-treated animals
[12] = Tempol-treated vs control mice, negative = downregulated, P Value 0.004
[13] = 5 mg/g of food from 14 to 31 months, mouse tp51
[14] = 5 mg/g of food from 14 to 31 months, mouse tp52
[15] = 5 mg/g of food from 14 to 31 months, mouse tp53
[16] = Tempol-treated vs control mice, negative = downregulated

CC1(C)CC(O)CC(C)(C)N1[O] [Tempol, 4-hydroxy-2,2,6,6-tetramethylpiperidine-1-oxyl]
UCP2 expression, Mean (Tempol-treated mice) [1, 10]: 2140
UCP2 expression Fold change ([1]; Tempol-treated vs control mice, negative = downregulated, P Value 0.012): −1.61 fold
UCP2 expression reduced (fold) [1, 11]: 1.61 fold
BRI3 expression, Mean (Tempol-treated mice) (Brain protein I3 (BRI3); [10]): 1835
BRI3 expression Fold change (Brain protein I3 (BRI3); Tempol-treated vs control mice, upregulated, P Value 0.003): 1.18 fold
PERP expression, Mean (Tempol-treated mice) [2, 10]: 82
PERP expression Fold change ([2]; Tempol-treated vs control mice, upregulated, P Value 0.049): 1.66 fold
SIRT2 expression, Mean (Tempol-treated mice) (Sirtuin 2 (SIRT2); [10]): 686
SIRT2 expression Fold change (Sirtuin 2 (SIRT2); Tempol-treated vs control mice, upregulated, P Value 0.048): 1.16 fold
COX-1 expression, Mean (Tempol-treated mice) (Cyclooxygenase 1 (COX-1); [10]): 331
COX-1 expression Fold change (Cyclooxygenase 1 (COX-1); Tempol-treated vs control mice, negative = downregulated, P Value 0.006): −1.18 fold
COX-1 expression reduced (fold) (Cyclooxygenase 1 (COX-1); [11]): 1.18 fold
HIF1A expression, Mean (Tempol-treated mice) [3, 10]: 2203
HIF1A expression Fold change [3, 12]: −1.23 fold
HIF1 alpha expression reduced (fold) [3, 11]: 1.23 fold
SOD2 expression, Mean (Tempol-treated mice) [4, 10]: 4423
SOD2 expression Fold change [4, 12]: −1.33 fold
SOD2 expression reduced (fold) [4, 11]: 1.33 fold
GSTM3 expression, Mean (Tempol-treated mice) [5, 10]: 74
GSTM3 expression Fold change ([5]; Tempol-treated vs control mice, upregulated, P Value 0.001): 7.52 fold
Elongation factor-1-δ expression, TEMPOL-treated mice tp51 (Elongation factor-1-δ; [13]): 12
Elongation factor-1-δ expression, TEMPOL-treated mice tp52 (Elongation factor-1-δ; [14]): 115
Elongation factor-1-δ expression, TEMPOL-treated mice tp53 (Elongation factor-1-δ; [15]): 185
Elongation factor-1-δ expression Fold change (Elongation factor-1-δ; [16]): −5.9 fold
Elongation factor-1-δ expression reduced (fold) (Elongation factor-1-δ; [11]): 5.9 fold
ADAM12 expression, TEMPOL-treated mice tp51 (Meltrin-alpha (ADAM12); [13]): −16
ADAM12 expression, TEMPOL-treated mice tp52 (Meltrin-alpha (ADAM12); [14]): −4
ADAM12 expression, TEMPOL-treated mice tp53 (Meltrin-alpha (ADAM12); [15]): −14
ADAM12 expression Fold change (Meltrin-alpha (ADAM12); [16]): −2.3 fold
ADAM12 expression reduced (fold) (Meltrin-alpha (ADAM12); [11]): 2.3 fold
PPAR-δ expression, TEMPOL-treated mice tp51 [6, 13]: 1
PPAR-δ expression, TEMPOL-treated mice tp52 [6, 14]: 19
PPAR-δ expression, TEMPOL-treated mice tp53 [6, 15]: 28
PPAR-δ expression Fold change [6, 16]: −2.3 fold
PPAR-δ expression reduced (fold) [6, 11]: 2.3 fold
Cathepsin B expression, TEMPOL-treated mice tp51 (Cathepsin B; [13]): −12
Cathepsin B expression, TEMPOL-treated mice tp52 (Cathepsin B; [14]): 6
Cathepsin B expression, TEMPOL-treated mice tp53 (Cathepsin B; [15]): 13
Cathepsin B expression Fold change (Cathepsin B; [16]): −2.8 fold
Cathepsin B expression reduced (fold) (Cathepsin B; [11]): 2.8 fold
MAPKK5 expression, TEMPOL-treated mice tp51 [7, 13]: 41
MAPKK5 expression, TEMPOL-treated mice tp52 [7, 14]: 84
MAPKK5 expression, TEMPOL-treated mice tp53 [7, 15]: 63
MAPKK5 expression Fold change ([7]; Tempol-treated vs control mice, upregulated): 2.2 fold
levels of MAPKK5, GSTM3, PERP, sirtuin 2 and brain protein I3 [8]: increased
protein levels of elongation factor-1 delta, ADAM12, cathepsin B, PPAR-δ, HIF alpha subunit, SOD2, UCP2 and COX-1 in the cancerous tissue [8]: reduced
levels of MAPKK5, GSTM3, PERP, sirtuin 2 and brain protein I3 [9]: increased
protein levels of elongation factor-1 delta, ADAM12, cathepsin B, PPAR-δ, HIF alpha subunit, SOD2, UCP2 and COX-1 in the cancerous tissue [9]: reduced
